22 molecules from patent US8119663B2, “Heteroaryl-substituted piperidines” (Bayer Pharma Aktiengesellschaft, priority 2007, dated 2012) can be followed below.

The assay has as its target T1, human protease activated receptor 1 (PAR1) (Homo sapiens, UniProt P25116).
T1 construct: the cell stably expresses the endogenous human PAR1 receptor and the endogenous purinergic receptor P2Y2; endogenous in cells; host or cells: HEK293-derived recombinant cell line constitutively expressing mitochondrial aequorin
T1 sequence (P25116 22-425): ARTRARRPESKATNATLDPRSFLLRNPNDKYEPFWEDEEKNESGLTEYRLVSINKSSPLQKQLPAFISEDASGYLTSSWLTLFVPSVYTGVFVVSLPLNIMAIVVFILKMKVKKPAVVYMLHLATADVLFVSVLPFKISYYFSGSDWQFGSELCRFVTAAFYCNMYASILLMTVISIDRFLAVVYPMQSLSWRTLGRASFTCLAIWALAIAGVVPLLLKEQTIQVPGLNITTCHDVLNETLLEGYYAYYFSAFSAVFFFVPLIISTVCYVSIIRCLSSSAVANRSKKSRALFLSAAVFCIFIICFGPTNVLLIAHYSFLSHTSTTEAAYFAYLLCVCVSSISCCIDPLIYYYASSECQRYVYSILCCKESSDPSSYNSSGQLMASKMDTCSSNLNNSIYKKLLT
Put plainly: Cellular functional in vitro test (aequorin luminescence, PAR1 test cell). The class given is cell-based. The following applies: recombinant HEK293-derived cell line expressing aequorin; PAR1 agonist added at its EC50 5 minutes after test substance. An excerpt: 1.a) Cellular Functional In vitro Test
A recombinant cell line is used to identify […] of the human protease activated receptor 1 (PAR1) and to quantify the activity of the substances described herein. The cell is originally derived from a human embryonal kidney cell (HEK293; ATCC: American Type Culture Collection, Manassas, Va. 20108, USA). The test cell line constitutively expresses a modified form of the calcium-sensitive photoprotein aequorin which, after reconstitution with the cofactor coelenterazine, emits light when the free calcium concentration in the inner mitochondrial compartment is increased (Rizzuto R, Simpson A W, Brini M, Pozzan T.; Nature 1992, 358, 325-327). Additionally, the cell stably expresses the endogenous human PAR1 receptor and the endogenous purinergic receptor P2Y2. The resulting PAR1 test cell responds to stimulation of the endogenous PAR1 or P2Y2 receptor with an intracellular release of calcium ions, which can be quantified through resulting aequorin luminescence with a suitable luminometer (Milligan G, Marshall F, Rees S, Trends in Pharmacological Sciences 1996, 17, 235-237).
For testing the substance specificity, its effect after activation of the endogenous PAR1 receptor is compared to the effect after activation of the endogenous purinergic P2Y2 receptor which utilizes the same intracellular signal path.
Test procedure: The cells are plated out two days (48 hours) before the test in culture medium (DMEM F12, supplemented with 10% FCS, 2 mM glutamine, 20 mM HEPES, 1.4 mM pyruvate, 0.1 mg/ml gentamycin, 0.15% Na bicarbonate; BioWhittaker Cat.# BE04-687Q; B-4800 Verviers, Belgium) in 384-well microtitre plates and kept in a cell incubator (96% atmospheric humidity, 5% V/V CO2, 37° C.). On the day of the test, the culture medium is replaced by a tyrode solution (in mM: 140NaCl, 5l KCl, 1MgCl2, 2CaCl2, 20 glucose, 20 HEPES), which additionally contains the cofactor coelenterazine (25 μM) and glutathione (4 mM), and the microtitre plate is then incubated for a further 3-4 hours. The test substances are then pipetted onto the microtitre plate, and 5 minutes after the transfer of the test substances into the wells of the microtitre plate the plate is transferred into the luminometer, a PAR1 agonist concentration which corresponds to the EC50 is added and the resulting light signal is immediately measured in the luminometer. To distinguish an antagonist substance action from a toxic action, the endogenous purinergic receptor is immediately subsequently activated with agonist (ATP, final concentration 10 μM) and the resulting light signal is measured.
Usually IC50 stands for the concentration needed to halve the response being measured. Turning to `CC(C)Cc1nnc(C2CC(c3ccc(OC(F)(F)F)cc3)CN(C(=O)N3CCOCC3)C2)o1` (racemic) [Example 474, {3-[5-(2-Methylpropyl)-1,3,4-oxadiazol-2-yl]-5-[4-(trifluoromethoxy)phenyl]piperidin-1-yl}-(morpholin-4-yl)methanone], the half-inhibitory concentration (IC50) amounted to 0.0234 µM.

With `O=C(N1CCOCC1)N1CC(c2ccc(C(F)(F)F)cc2)CC(c2noc(-c3cccc(F)c3)n2)C1` (racemic) [Example 159, {3-[5-(3-Fluorophenyl)-1,2,4-oxadiazol-3-yl]-5-[4-(trifluoromethyl)phenyl]piperidin-1-yl}-(morpholin-4-yl)methanone], the IC50 is 0.00461 µM. For `CC1CN(C(=O)N2CC(c3ccc(C(F)(F)F)cc3)CC(c3nc(C4CC4)no3)C2)C1` (racemic) [Example 181, {3-(3-Cyclopropyl-1,2,4-oxadiazol-5-yl)-5-[4-(trifluoromethyl)phenyl]piperidin-1-yl}(3-methylazetidin-1-yl)methanone], the IC50 stood at 0.0288 µM. Then `CC(C)c1nc(C2CC(c3ccc(C(F)(F)F)cc3)CN(C(=O)N3CCOCC3)C2)no1` (racemic) [Example 169, Morpholin-4-yl{3-[5-(propan-2-yl)-1,2,4-oxadiazol-3-yl]-5-[4-(trifluoromethyl)phenyl]piperidin-1-yl}methanone], with 0.00674 µM; and `Cc1ccc(C2CC(c3nc(C(C)C)no3)CN(C(=O)N3CCC(O)CC3)C2)cc1C` (racemic) [Example 234, {3-(3,4-Dimethylphenyl)-5-[3-(propan-2-yl)-1,2,4-oxadiazol-5-yl]piperidin-1-yl}(4-hydroxy-piperidin-1-yl)methanone], with 0.0154 µM; and `CC(C)(O)Cc1noc(C2CC(c3ccc(C(F)(F)F)cc3)CN(C(=O)N3CCC(C#N)CC3)C2)n1` (racemic) [Example 212, 1-({3-[3-(2-Hydroxy-2-methylpropyl)-1,2,4-oxadiazol-5-yl]-5-[4-(trifluoromethyl)phenyl]-piperidin-1-yl}carbonyl)piperidine-4-carbonitrile], with 0.142 µM.

On to `COCCc1noc(C2CC(c3ccc(OC(F)(F)F)c(C)c3)CN(C(=O)N3CCOCC3)C2)n1` (single isomer, unassigned) [Example 322, {3-[3-(2-Methoxyethyl)-1,2,4-oxadiazol-5-yl]-5-[3-methyl-4-(trifluoromethoxy)phenyl]piperidin-1-yl}(morpholin-4-yl)methanone], for which the half-inhibitory concentration (IC50) was determined as 0.00301 µM. Then `O=C(N1CCOCC1)N1CC(c2ccc(OC(F)(F)F)cc2)CC(c2nc(C3CCC3)no2)C1` (racemic) [Example 513, {3-(3-Cyclobutyl-1,2,4-oxadiazol-5-yl)-5-[4-(trifluoromethoxy)phenyl]piperidin-1-yl}(morpholin-4-yl)methanone], with 0.00516 µM; and `CCSCc1csc(C2CC(c3ccc(CC)cc3)CN(C(=O)N3CCOCC3)C2)n1` (racemic) [Example 484, [3-(4-Ethylphenyl)-5-{4-[(ethylsulphanyl)methyl]-1,3-thiazol-2-yl}piperidin-1-yl](morpholin-4-yl)methanone], with 0.0766 µM; and `CC(C)c1noc(C2CC(c3ccc(C(F)(F)F)cc3)CN(C(=O)N3CCC(C#N)CC3)C2)n1` (racemic) [Example 284, 1-({3-[3-(Propan-2-yl)-1,2,4-oxadiazol-5-yl]-5-[4-(trifluoromethyl)phenyl]piperidin-1-yl}-carbonyl)piperidine-4-carbonitrile], with 0.00973 µM. Then `COCCc1noc(C2CC(c3ccc(OC(F)(F)F)cc3)CN(C(=O)N3CCC(O)CC3)C2)n1` (single isomer, unassigned) [Example 449, (4-Hydroxypiperidin-1-yl) {3-[3-(2-methoxyethyl)-1,2,4-oxadiazol-5-yl]-5-[4-(trifluoromethoxy)-phenyl]piperidin-1-yl}methanone], with 0.0863 µM.

As for `Cc1ccc(C2CC(c3nc(C(C)C)no3)CN(C(=O)N3CCOCC3)C2)cc1C` (racemic) [Example 148, {3-(3,4-Dimethylphenyl)-5-[3-(propan-2-yl)-1,2,4-oxadiazol-5-yl]piperidin-1-yl}(morpholin-4-yl)methanone], the half-maximal inhibitory concentration (IC50) amounted to 0.014 µM.

`Cc1ccncc1-c1csc(C2CC(c3ccc(C(F)(F)F)cc3)CN(C(=O)N3CCOCC3)C2)n1` (racemic) [Example 113, 4-({3-[4-(4-Methylpyridin-3-yl)-1,3-thiazol-2-yl]-5-[4-(trifluoromethyl)phenyl]piperidin-1-yl}carbonyl)morpholine]: the IC50 was 0.047 µM. Under `CCc1ccc(C2CC(c3nc(C(C)(C)O)no3)CN(C(=O)N3CCC(O)CC3)C2)cc1` (racemic) [Example 187, {3-(4-Ethylphenyl)-5-[3-(2-hydroxypropan-2-yl)-1,2,4-oxadiazol-5-yl]piperidin-1-yl}(4-hydroxy-piperidin-1-yl)methanone] stands 0.0534 µM. As for `COCCc1noc(C2CC(c3cccc(OC(F)(F)F)c3)CN(C(=O)N3CCOCC3)C2)n1` (single isomer, unassigned) [Example 194, {3-[3-(2-Methoxyethyl)-1,2,4-oxadiazol-5-yl]-5-[3-(trifluoromethoxy)phenyl]piperidin-1-yl}-(morpholin-4-yl)methanone], the 50% inhibitory concentration (IC50) was found to be 0.0661 µM. For the molecule `Cc1cc(-c2noc(C3CC(c4ccc(OC(F)(F)F)cc4)CN(C(=O)N4CCOCC4)C3)n2)no1` (racemic) [Example 249, {3-[3-(5-Methylisoxazol-3-yl)-1,2,4-oxadiazol-5-yl]-5-[4-(trifluoromethoxy)phenyl]piperidin-1-yl}(morpholin-4-yl)methanone], the concentration for half-maximal inhibition (IC50) came out at 0.0131 µM. Then `COCCc1noc(C2CC(c3ccc(C(F)(F)F)cc3)CN(C(=O)N3CCC(O)CC3)C2)n1` (single isomer, unassigned) [Example 275, (4-Hydroxypiperidin-1-yl) {3-[3-(2-methoxyethyl)-1,2,4-oxadiazol-5-yl]-5-[4-(trifluoromethyl)-phenyl]piperidin-1-yl}methanone], with 0.0103 µM; and `O=C(N1CCOCC1)N1CC(c2ccc(C(F)(F)F)cc2)CC(c2nc(-c3cccnc3)cs2)C1` (racemic) [Example 119, 4-({3-(4-Pyridin-3-yl-1,3-thiazol-2-yl)-5-[4-(trifluoromethyl)phenyl]piperidin-1-yl}carbonyl)-morpholine], with 0.068 µM; and `O=C(N1CC(c2ccc(OC(F)(F)F)cc2)CC(c2nc(C3CC3)no2)C1)N1CCC(F)(F)C1` (racemic) [Example 144, {3-(3-Cyclopropyl-1,2,4-oxadiazol-5-yl)-5-[4-(trifluoromethoxy)phenyl]piperidin-1-yl}(3,3-difluoropyrrolidin-1-yl)methanone], with 0.00851 µM. Under `CCc1ccc(C2CC(c3nc(-c4ccc(F)cc4F)no3)CN(C(=O)N3CCOCC3)C2)cc1` (racemic) [Example 37, 4-({3-[3-(2,4-Difluorophenyl)-1,2,4-oxadiazol-5-yl]-5-(4-ethylphenyl)piperidin-1-yl}carbonyl)-morpholine] stands 0.021 µM. Then `COCCc1noc(C2CC(c3ccc(C)c(C(F)(F)F)c3)CN(C(=O)N3CCOCC3)C2)n1` (single isomer, unassigned) [Example 459, {3-[3-(2-Methoxyethyl)-1,2,4-oxadiazol-5-yl]-5-[4-methyl-3-(trifluoromethyl)phenyl]piperidin-1-yl}(morpholin-4-yl)methanone], with 0.0842 µM.

For `CCc1ccc(C2CC(c3nc(CCOC)no3)CN(C(=O)N3CCOCC3)C2)cc1` (racemic) [Example 150, {3-(4-Ethylphenyl)-5-[3-(2-methoxyethyl)-1,2,4-oxadiazol-5-yl]piperidin-1-yl}(morpholin-4-yl)methanone], the half-inhibitory concentration (IC50) was found to be 0.019 µM.
